Data: patent US20210205223A1, “PROPELLANT-FREE FORMULATION FOR INHALATION” (priority 2020, published 2021)
Where a name gives a salt, the structure may show the parent alone.

Details: solution of sample 1 from soft mist inhaler; ACI 28.3 L/minute, ambient temperature, RH 90%
Method: The aerodynamic particle size distribution was determined using an Andersen Scale Impactor (ACI). The soft mist inhaler was held close to the ACI inlet until no aerosol was visible. The flow rate of the ACI was set to 28.3 L/minute and was operated under ambient temperature and a relative humidity (RH) of 90%.
Fractions of the dose were deposited at different stages of the ACI, in accordance with the particle size of the fraction. Each fraction was washed from the stage and analyzed using HPLC.
The particle size distribution was expressed in terms of mass median aerodynamic diameter (MMAD) and Geometric Standard Deviation (GSD).

Compound	MMAD (mass median aerodynamic diameter) [μm]
C[N+]1(C)CCC(OC(=O)C(O)(c2ccccc2)C2CCCC2)C1.[Br-] (centres unmarked) [Glycopyrronium bromide]	4.91
COc1ccc(CC(C)NCC(O)c2ccc(O)c(NC=O)c2)cc1 (centres unmarked) [Formoterol fumarate, N-[2-hydroxy-5-(1-hydroxy-2-((2-(4-methoxyphenyl)-1-methylethy-1)amino)-ethyl)phenyl] formamide]	4.49
